Data set [1] addresses T1, Probable nuclear hormone receptor HR3 (Drosophila melanogaster) (UniProt P31396).
T1 sequence (whole entry): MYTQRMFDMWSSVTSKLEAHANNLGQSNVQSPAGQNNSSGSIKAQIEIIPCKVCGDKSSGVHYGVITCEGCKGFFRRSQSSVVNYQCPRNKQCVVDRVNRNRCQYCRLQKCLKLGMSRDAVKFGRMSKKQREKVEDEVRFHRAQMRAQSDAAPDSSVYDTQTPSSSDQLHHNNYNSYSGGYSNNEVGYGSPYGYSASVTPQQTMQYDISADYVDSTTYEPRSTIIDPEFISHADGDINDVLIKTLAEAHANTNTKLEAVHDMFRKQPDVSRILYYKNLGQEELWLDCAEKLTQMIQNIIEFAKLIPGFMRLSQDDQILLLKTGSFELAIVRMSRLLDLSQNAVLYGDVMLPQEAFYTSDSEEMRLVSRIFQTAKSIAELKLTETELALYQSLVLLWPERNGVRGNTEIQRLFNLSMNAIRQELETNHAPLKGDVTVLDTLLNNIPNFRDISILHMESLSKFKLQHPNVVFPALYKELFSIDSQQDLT
The data set is described as follows: Antagonist activity at Drosophila melanogaster transactivation domain of DHR3 expressed in Drosophila Schneider cells co-expressing Gal4-DNA binding domain up to 96 uM. In kind it is cell-based. Particulars: Schneider 2.

Data set [2] deals with T2, Nuclear receptor ROR-alpha (Homo sapiens) (UniProt P35398).
T2 sequence (whole entry): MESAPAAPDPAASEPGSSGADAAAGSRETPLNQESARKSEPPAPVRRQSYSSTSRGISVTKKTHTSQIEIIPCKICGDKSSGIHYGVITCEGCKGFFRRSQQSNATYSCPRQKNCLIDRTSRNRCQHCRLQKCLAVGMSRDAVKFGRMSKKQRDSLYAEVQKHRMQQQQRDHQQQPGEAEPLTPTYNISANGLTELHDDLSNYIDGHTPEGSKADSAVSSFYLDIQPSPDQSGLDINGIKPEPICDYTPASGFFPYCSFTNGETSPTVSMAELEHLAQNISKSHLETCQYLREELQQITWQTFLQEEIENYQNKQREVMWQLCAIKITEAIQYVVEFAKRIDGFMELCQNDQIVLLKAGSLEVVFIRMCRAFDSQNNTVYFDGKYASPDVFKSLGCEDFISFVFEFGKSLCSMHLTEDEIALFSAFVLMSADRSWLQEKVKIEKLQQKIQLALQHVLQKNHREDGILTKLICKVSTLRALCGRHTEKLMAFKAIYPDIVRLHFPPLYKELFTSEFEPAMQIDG
The data set is described as follows: Antagonist activity at transactivation domain of RORalpha (unknown origin) expressed in Drosophila Schneider cells co-expressing Gal4-DNA binding domain up to 96 uM. Type of data set: cell-based. Particulars: Schneider 2.

For the next data set, the system named is Schneider 2. Nature of the data set: Antagonist activity at HSV transactivation domain of VP16 expressed in Drosophila Schneider cells co-expressing Gal4-DNA binding domain up to 96 uM. Type of data set: cell-based. Particulars: Human alphaherpesvirus 1.
The target in data set [3] is T3, Nuclear receptor ROR-gamma (Homo sapiens, UniProt P51449).
T3 sequence (P51449 whole entry): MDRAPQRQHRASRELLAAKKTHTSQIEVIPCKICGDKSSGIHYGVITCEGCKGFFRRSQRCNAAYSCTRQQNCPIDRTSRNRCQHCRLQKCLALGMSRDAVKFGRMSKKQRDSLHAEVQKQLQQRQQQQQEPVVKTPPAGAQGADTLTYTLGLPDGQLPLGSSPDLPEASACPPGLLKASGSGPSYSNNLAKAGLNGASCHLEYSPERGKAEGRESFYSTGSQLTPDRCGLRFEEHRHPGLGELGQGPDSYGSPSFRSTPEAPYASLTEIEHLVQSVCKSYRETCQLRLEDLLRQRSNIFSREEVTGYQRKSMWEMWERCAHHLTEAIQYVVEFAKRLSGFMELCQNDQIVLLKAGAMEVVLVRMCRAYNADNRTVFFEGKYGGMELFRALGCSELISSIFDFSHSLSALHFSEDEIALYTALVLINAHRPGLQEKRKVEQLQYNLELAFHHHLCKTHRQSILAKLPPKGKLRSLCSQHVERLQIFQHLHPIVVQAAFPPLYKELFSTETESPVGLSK
The data set is described as follows: Antagonist activity at transactivation domain of RORgammat (unknown origin) expressed in Drosophila Schneider cells co-expressing Gal4-DNA binding domain. In kind it is cell-based, Schneider 2.

Data set [4] can be described thus: Cytotoxicity against human Th17 cells up to 96 uM. In kind it is cell-based.

The structures appear in SMILES notation. Activity calls are given as the source filed them. The calls are words filed in the database; no cut-off is given here.

The term IC50 denotes the concentration that gives 50% inhibition.

Turning to `COc1cc(O)c(C(CC(=O)N2CCOCC2)c2ccc3c(c2)OCO3)c(OC)c1` (stereo unspecified), the inhibition result (in data set [1]; in data set [2]; in the data set on Schneider 2) was “inactive” in each case. In addition, the IC50 result in data set [3] (schneider 2) was “Not Active”. Further, the Activity result in data set [4] was “Non-toxic”.

For the molecule `COc1cccc(C(CC(=O)N2C[C@H](C)C[C@H](C)C2)c2c(O)cc(OC)cc2OC)c1` (stereo partly specified), the inhibition result (in data set [1]; in data set [2]; in the data set on Schneider 2) was “inactive” throughout. The Activity entry in data set [4] was “Non-toxic”.

Consider `COc1ccc(C(CC(=O)N2CCCC(C)C2)c2c(O)cc(OC)cc2OC)cc1` (mixture of isomers), for which the inhibition entry (in data set [1]; in data set [2]; in the data set on Schneider 2) was “inactive” throughout. Besides, in data set [3] (read-out: IC50), the IC50 turned out to be 2.5 µM. Moreover, the Activity entry in data set [4] was “Non-toxic”.

As to `COc1cc(O)c(C(CC(=O)N2C[C@@H](C)O[C@@H](C)C2)c2ccc3c(c2)OCO3)c(OC)c1` (stereo partly specified), the inhibition result (in data set [1]; in data set [2]; in the data set with Schneider 2) was “inactive” throughout. For the same molecule, the Activity result in data set [4] is given as “Non-toxic”.

For the molecule `COc1cc(O)c(C(CC(=O)N2C[C@H](C)C[C@H](C)C2)c2ccc(Cl)cc2)c(OC)c1` (stereo partly specified), the inhibition entry (in data set [1]; in data set [2]; with Schneider 2) was “inactive” in each case. Besides, the Activity result in data set [4] is reported as “Non-toxic”.

Take `CC1CCCN(C(=O)CC(c2ccc3c(c2)OCO3)c2cc(-c3ccccc3)ccc2O)C1` (mixture of isomers): the inhibition result (in data set [1]; in data set [2]; in the data set on Schneider 2) was “inactive” throughout. Also, in data set [4], the Activity entry is on record as “Non-toxic”.

For `CCN(CC)C(=O)CC(c1ccc2c(c1)OCO2)c1c(O)cc(OC)cc1OC` (stereo unspecified), the inhibition entry (in data set [1]; in data set [2]; in the data set with Schneider 2) was “inactive” in each case. The IC50 in data set [3] (read-out: IC50) is > 50 µM. In addition, in data set [4], the Activity result is given as “Non-toxic”.

As to `COc1cccc(O)c1C(CC(=O)N1CCCC(C)C1)c1ccc2c(c1)OCO2` (mixture of isomers), the inhibition entry (in data set [1]; in data set [2]; with Schneider 2) was “inactive” each time. Besides, the Activity result in data set [4] was “Non-toxic”.

Consider `CCCCNC(=O)CC(c1ccc2c(c1)OCO2)c1c(O)cc(OC)cc1OC` (stereo unspecified), for which the inhibition result (in data set [1]; in data set [2]; in the data set on Schneider 2) was “inactive” throughout. The Activity result in data set [4] is given as “Non-toxic”.

For `COc1cc(OC)c(C(CC(=O)N2CCCC(C)C2)c2ccc3c(c2)OCO3)c(OC)c1` (mixture of isomers), the inhibition result (in data set [1]; in data set [2]; in the data set on Schneider 2) was “inactive” throughout. The Activity result in data set [4] is recorded as “Non-toxic”.

As to `COc1cc(O)c(C(CC(=O)N2CCCC(C)(C)C2)c2ccc3c(c2)OCO3)c(OC)c1` (stereo unspecified), the inhibition entry (in data set [1]; in data set [2]; in the data set on Schneider 2) was “inactive” each time. The Activity entry in data set [4] is on record as “Non-toxic”.

For the molecule `COc1cc(O)c(C(CC(=O)N2CCCCC2)c2ccc3c(c2)OCO3)c(OC)c1` (stereo unspecified), the inhibition result (in data set [1]; in data set [2]; in the data set on Schneider 2) was “inactive” in each case. For the same molecule, the IC50 in data set [3] (read-out: IC50) worked out at 15.7 µM. Further, the Activity entry in data set [4] was “Non-toxic”.

`COc1cc(O)c(C(CC(=O)N2CCC(C)CC2)c2ccc3c(c2)OCO3)c(OC)c1` (stereo unspecified): the inhibition result (in data set [1]; in data set [2]; in the data set with Schneider 2) was “inactive” each time. In addition, the Activity entry in data set [4] is “Non-toxic”.

In the case of `COc1cc(O)c(C(CC(=O)N2CCCCC2C)c2ccc3c(c2)OCO3)c(OC)c1` (mixture of isomers), the inhibition result (in data set [1]; in data set [2]; in the data set with Schneider 2) was “inactive” in each case. Further, the Activity result in data set [4] is “Non-toxic”.

In the case of `C[C@H]1O[C@@H](O[C@H]2[C@@H](O)C[C@H](O[C@H]3[C@@H](O)C[C@H](O[C@H]4CC[C@@]5(C)[C@H](CC[C@@H]6[C@@H]5C[C@@H](O)[C@]5(C)[C@@H](C7=CC(=O)OC7)CC[C@]65O)C4)O[C@@H]3C)O[C@@H]2C)C[C@H](O)[C@@H]1O` [DIGOXIN], the IC50 in data set [3] (read-out: IC50) was 2 µM.

In the case of `COc1ccc(C(CC(=O)N2C[C@H](C)C[C@H](C)C2)c2c(O)cc(OC)cc2OC)cc1` (stereo partly specified), the inhibition entry (in data set [1]; in data set [2]; in the data set with Schneider 2) was “inactive” each time. Moreover, the Activity entry in data set [4] is listed as “Non-toxic”.

On to `COc1cc(O)c(C(CC(=O)N2C[C@@H](C)N[C@@H](C)C2)c2ccc3c(c2)OCO3)c(OC)c1` (stereo partly specified), for which the inhibition entry (in data set [1]; in data set [2]; in the data set on Schneider 2) was “inactive” each time. The IC50 entry in data set [3] (schneider 2) is listed as “Not Active”. Also, the Activity entry in data set [4] is “Non-toxic”.

Take `COc1ccc(C(CC(=O)N2CCCC(C)C2)c2ccc3c(c2)OCO3)c(O)c1` (mixture of isomers): the inhibition result (in data set [1]; in data set [2]; in the data set on Schneider 2) was “inactive” each time. The Activity entry in data set [4] was “Non-toxic”.

Take `COc1cc(O)c(C(CC(=O)N2C[C@H](C)C[C@H](C)C2)c2ccc(C(F)(F)F)cc2)c(OC)c1` (stereo partly specified): the inhibition result (in data set [1]; in data set [2]; in the data set with Schneider 2) was “inactive” each time. Further, the Activity entry in data set [4] is “Non-toxic”.

Turning to `COc1cc(O)c(C(CC(=O)N2CCCC2)c2ccc3c(c2)OCO3)c(OC)c1` (stereo unspecified), the inhibition entry (in data set [1]; in data set [2]; in the data set with Schneider 2) was “inactive” in each case. Moreover, the IC50 in data set [3] (read-out: IC50) is > 50 µM. Moreover, the Activity entry in data set [4] is recorded as “Non-toxic”.

With `COc1cc(O)c(C(CC(=O)N2CCCCCC2)c2ccc3c(c2)OCO3)c(OC)c1` (stereo unspecified), the inhibition entry (in data set [1]; in data set [2]; in the data set on Schneider 2) was “inactive” each time. In data set [4], the Activity entry was “Non-toxic”.

As to `COc1cc(O)c(C(CC(=O)N2CCCC(C)C2)c2ccc3c(c2)OCO3)c(OC)c1` (mixture of isomers), the inhibition entry (in data set [1]; in data set [2]; in the data set with Schneider 2) was “inactive” each time. The IC50 in data set [3] (read-out: IC50) was 3.3 µM. For the same molecule, in data set [4], the Activity result is reported as “Non-toxic”.

As to `COc1cc(O)c(C(CC(=O)N2C[C@H](C)C[C@H](C)C2)c2ccc(C)cc2)c(OC)c1` (stereo partly specified), the inhibition entry (in data set [1]; in data set [2]; with Schneider 2) was “inactive” throughout. In addition, the Activity result in data set [4] is reported as “Non-toxic”.

As for `COc1cc(O)c(C(CC(=O)Nc2ccc(C)cc2)c2ccc3c(c2)OCO3)c(OC)c1` (stereo unspecified), the inhibition entry (in data set [1]; in data set [2]; in the data set on Schneider 2) was “inactive” in each case. In addition, the IC50 in data set [3] (read-out: IC50) is > 50 µM. The Activity entry in data set [4] is “Non-toxic”.

Values taken from ChEMBL document CHEMBL2321802, “Identification of Potent and Selective Diphenylpropanamide RORγ Inhibitors” (ACS Med Chem Lett, 2013).
